Source: article PMC6442743 (Bioorganic & medicinal chemistry letters, 2018)

Columns and labels:
[1] = biological target: T1, human sEH (Homo sapiens, UniProt P34913); assay: sEH inhibition, kinetic fluorescent assay; assay type: biochemical
T1 sequence (P34913 1-555): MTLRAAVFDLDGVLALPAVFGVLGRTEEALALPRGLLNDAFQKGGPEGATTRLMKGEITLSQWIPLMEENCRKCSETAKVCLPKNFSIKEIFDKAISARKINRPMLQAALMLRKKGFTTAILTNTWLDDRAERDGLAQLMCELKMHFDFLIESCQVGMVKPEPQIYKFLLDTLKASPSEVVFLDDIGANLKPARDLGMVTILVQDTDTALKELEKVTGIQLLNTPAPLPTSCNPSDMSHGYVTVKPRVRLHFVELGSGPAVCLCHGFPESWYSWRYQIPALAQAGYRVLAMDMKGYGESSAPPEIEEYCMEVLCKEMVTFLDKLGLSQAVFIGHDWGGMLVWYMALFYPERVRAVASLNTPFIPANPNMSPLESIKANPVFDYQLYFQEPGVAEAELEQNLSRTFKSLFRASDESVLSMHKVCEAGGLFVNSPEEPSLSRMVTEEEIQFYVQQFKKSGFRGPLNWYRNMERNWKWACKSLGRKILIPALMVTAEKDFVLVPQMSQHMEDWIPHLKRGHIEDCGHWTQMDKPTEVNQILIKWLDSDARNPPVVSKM

[2] = Water solubility in sodium phosphate buffer; assay type: physicochemical; settings: for fold more soluble in water than 3a: compared with 3a
[3] = compared with 1a, sodium phosphate buffer pH 7.4, 0.1 M, 1% DMSO

CCC(CC12CC3CC(CC(C3)C1)C2)NC(=S)Nc1ccccc1 (stereo not drawn) [1c]
fold less potent than 1a ([1]; compared with 1a): 25 fold

S=C(NC1C2CC3CC(C2)CC1C3)NC12CC3CC(CC(C3)C1)C2 (stereo not drawn) [4a]
fold more soluble in water than 3a [2]: 1.8 fold

S=C(NCCCCCCCCCCNC(=S)NC12CC3CC(CC(C3)C1)C2)NC12CC3CC(CC(C3)C1)C2 [6h]
fold difference in water solubility vs. 6a (decrease) ([2]; compared with 6a (1,2-ethylene spacer)): 3 fold

S=C(Nc1ccccc1)NC1C2CC3CC(C2)CC1C3 (stereo not drawn) [2a]
fold less potent than its urea analog ([1]; compared with urea analog): 13 fold

CC12CC3CC(C)(C1)CC(NC(=S)NCc1ccccc1)(C3)C2 [1d]
fold decrease in water solubility vs. 1a [2, 3]: 4 fold

S=C(Nc1ccc(C23CC4CC(CC(C4)C2)C3)cc1)Nc1ccc(C23CC4CC(CC(C4)C2)C3)cc1 [3j]
fold decrease in inhibition potency vs. 3a ([1]; compared with 3a): 1367 fold | fold more soluble in water than 3a [2]: 3 fold

CC12CC3CC(C)(C1)CC(NC(=S)Nc1ccc(F)cc1)(C3)C2 [1n]
fold more soluble in water vs. 1a [2, 3]: 4 fold

CC12CC3CC(C)(C1)CC(NC(=S)Nc1ccccc1)(C3)C2 [1a]
fold more potent than 1b ([1]; compared with 1b): 2 fold | water solubility (in words) ([2]; sodium phosphate buffer pH 7.4, 0.1 M, 1% DMSO): poorly soluble in water

S=C(NCCNC(=S)NC12CC3CC(CC(C3)C1)C2)NC12CC3CC(CC(C3)C1)C2 [6a]
fold less potent than the rest of thioureas in this series ([1]; compared with the other dithioureas of series 6): 10–137 fold

S=C(NCCc1ccccc1)NC1C2CC3CC(C2)CC1C3 (stereo not drawn) [2c]
fold increase of inhibition potency vs. 2b ([1]; compared with 2b): 4 fold

S=C(NC12CC3CC(CC(C3)C1)C2)NC12CC3CC(CC(C3)C1)C2 [3a, di(adamantan-1yl)thiourea]
fold more water soluble than urea of corresponding structure ([2]; compared with corresponding urea, urea data ref 17 for 3a): 4.7 fold

S=C(NC1C2CC3CC(C2)CC1C3)NC1C2CC3CC(C2)CC1C3 (stereo not drawn) [compound 5]
fold more soluble in water than 3a [2]: 1.5 fold

S=C(NCc1ccccc1)NC1C2CC3CC(C2)CC1C3 (stereo not drawn) [2b]
fold increase of inhibition potency vs. 2a ([1]; compared with 2a): 6.7 fold
